Data: patent US12569438B2, “Nanomaterials containing constrained lipids and uses thereof” (GEORGIA TECH RESEARCH CORPORATION, priority 2019, dated 2026)

Test system: splenic T cells
Experiment: DNA barcode/siGFP high throughput in vivo screen: delivery and enrichment of pooled LNPs in GFP^Low splenic T cells
Set-up: species or system mice
Conditions: pooled LNPs 1.5 mg/kg total iv, 3 days
Excerpt: DNA Barcoding. Each chemically distinct LNP was formulated to carry its own unique DNA barcode and siRNA. For example, LNP1 carried DNA barcode 1 and siICAM2, while the chemically distinct LNP2 carried DNA barcode 2 and siGFP. Single stranded DNA sequences were purchased from Integrated DNA Technologies (IDT). To ensure equal amplification of each sequence, we included universal forward and reverse primer regions. Each barcode was distinguished using a unique 8 nucleotide sequence. An 8 nucleotide sequence can generate 65,536 distinct barcodes. 156 distinct sequences designed to prevent sequence ‘bleaching’ on the Illumina MiniSeq sequencing machine were used.
Animal Experiments. […] Mice were injected intravenously via the lateral tail vein. The nanoparticle concentration was determined using NanoDrop (Thermo Scientific).
Cell Isolation & Staining. […]
LNP delivery of siRNA to target cells (in this case, T lymphocytes) as well as 8 off-target cell types in vivo was evaluated. siGFP chemically modified to reduce immunostimulation and enhance on-target silencing via preferential antisense RISC loading (FIG. S2A) was used. […] The GFP acted as the functional delivery readout. […] Thus, 3 days after injecting mice, GFP^Low cells were isolated using fluorescence activated cell sorting (FACS), and deep sequenced to quantify the efficiency with which all N LNPs delivered barcodes into the cells. […]

For `CCCCC/C=C\C/C=C\CCCCCCCC(=O)OCC(COC(=O)C[C@]12CC3CC(C[C@@H](C3)C1)C2)COC(=O)OCCCN(CC)CC` (some centres unmarked) [Lipomer 11-A, 3-[(1-Adamantanyl)acetoxy]-2-{[3-(diethylamino)propoxycarbonyloxy]methyl}propyl (9Z,12Z)-9,12-octadecadienoate], the “Normalized DNA delivery” value (GFP^Low splenic T cells) was “significantly more delivery than 11-L and 11-S” and the “Enrichment in T Cells” value (splenic T cells, top 10% vs bottom 10% LNPs, DSPC formulations) was “most enriched”.
